Values joined by “and” are separate entries in the source; they are usually repeats but may differ in a detail not shown here. Identical values can stand only once. Like-named read-outs stand apart in the source and are kept apart here.
Experiments:
[1] = Cohort 3 (2 to 5 years), post-dose, N = 1, single 10 mg/kg IV
Protocol: Safety was monitored during both the screening and treatment periods by physical exams, vital signs, urinalysis, and clinical laboratory measures (complete blood count with differential, serum chemistry, creatinine, and liver enzymes); AEs and concomitant medications were recorded from screening through follow-up on Day 8 (± 1 day). Medical and medication history and demographics were collected at screening. Vital signs (heart rate, blood pressure, respiratory rate, and body temperature) were collected at screening, Days 1 and 2 of the study.

[2] = five courses in three adolescent cystic fibrosis patients; 8.7–10 mg/kg daily for up to 3 weeks; cited from earlier work
[3] = Healthy adults, N = 42, single 10 mg/kg IV dose, mean ± SD, cited from earlier work
[4] = Single-dose plasma pharmacokinetics of telavancin in pediatric subjects (noncompartmental analysis); format: in vivo, human; conditions: single 10 mg/kg IV infusion over 60 min; for Tmax / Cmax / half-life: iv; for Tmax: median (minimum–maximum), read-out: T max (time at maximum concentration); for Cmax: read-out: C max (maximum plasma concentration); for half-life: read-out: T 1/2 (terminal elimination half-life) (converted)
Protocol: The drug was infused over 60 min on Day 1. Blood samples were collected at 1, 1.5, 2, 6, 12, and 24 h following the start of infusion for PK analysis.
Subjects with missing early PK samples were included in the PK population for plasma concentrations at each collected time point, but they were excluded from the PK modeling. […] The primary endpoints calculated from the plasma concentration-time data were maximum observed plasma concentration (C max), time to reach maximum plasma concentration (T max), area under the plasma concentration versus time curve from time 0 to the last sample with measurable analyte concentration (AUC0-last), area under the concentration versus time curve extrapolated to infinity (AUCinf), and terminal elimination half-life (T 1/2). CL and apparent steady-state volume of distribution (Vss) were also calculated from the plasma concentration-time data. PK parameters were calculated using noncompartmental analysis with Phoenix WinNonlin v8.1 (Certara, Princeton, NJ, USA).
For calculation of mean concentrations at each time point and generation for mean concentration versus time profiles, all values below the limit of quantification (BLQ) were set to 0. […] For the NCA, actual infusion durations and actual sampling times were used. Infusion duration was calculated as the difference between the start of infusion time and the end of infusion time. Actual sampling times were calculated as the difference between the start of infusion time and the sampling time.
For PK analysis and individual concentration versus time plots, a concentration that was BLQ was assigned a value of 0, if it occurred in a profile before the first measurable concentration and was set to missing thereafter, if two BLQ values occurred in succession after C max, the profile was deemed to have terminated at the first BLQ value, and any subsequent concentrations were omitted from PK calculations.

[5] = Cohort 2 (6–11 years), N = 6, plasma, noncompartmental, mean ± SD
[6] = Cohort 3 (2–5 years), N = 1, plasma, noncompartmental
[7] = human, in vivo, 10 mg/kg, Cohort 1 (12–17 years), N = 13, plasma, mean ± SD
[8] = human, in vivo, 10 mg/kg, Cohort 2 (6–11 years), N = 6, plasma, mean ± SD

Which Platelets ([1]; pre-dose 148 ± 0.0) does the source give for `CCCCCCCCCCNCCN[C@@]1(C)C[C@H](O[C@H]2[C@H](Oc3c4cc5cc3Oc3ccc(cc3Cl)[C@@H](O)[C@@H](NC(=O)[C@@H](CC(C)C)NC)C(=O)N[C@@H](CC(N)=O)C(=O)N[C@H]5C(=O)N[C@H]3C(=O)N[C@H](C(=O)N[C@H](C(=O)O)c5cc(O)c(CNCP(=O)(O)O)c(O)c5-c5cc3ccc5O)[C@H](O)c3ccc(c(Cl)c3)O4)O[C@H](CO)[C@@H](O)[C@@H]2O)O[C@@H](C)[C@H]1O` [telavancin] here?
Its Platelets is 195 ± 0.0 x10^9/L.

What about the Lactate dehydrogenase ([1]; pre-dose 477 ± 0.0) of the same compound?
The Lactate dehydrogenase was 480 ± 0.0 IU/L.

And the “Serum creatinine across courses of treatment” value [2]?
The value was “remained stable”.

What about the “AUC0-inf (area under the curve extrapolated to infinity)” value (“AUC0-inf” for short) ([3]; 10 mg/kg) of the same compound?
The value was 747 µg·h/mL and 747 ± 129 µg·h/mL.

And the “T 1/2 (terminal elimination half-life)” value ([3]; 10 mg/kg)?
Its value is 8.0 h and 8.0 ± 1.5 h.

And the “C max (maximum plasma concentration)” value [3]?
Its value is 93.6 ± 14.2 µg/mL.

And the “CL (clearance)” value [3]?
The value was 0.232 ± 0.0483 mL/min/kg.

And the “Mean plasma telavancin concentration” value ([4]; Cohort 1 (12–17 years), N = 13–14, nominal time 1 h after start of infusion, mean ± SD)?
The value was 58.1 ± 8.38.

What about the “Mean plasma telavancin concentration” value ([4]; Cohort 1 (12–17 years), N = 13–14, nominal time 1.5 h, mean ± SD) of the same compound?
Its value is 46.2 ± 7.01.

What about the “Mean plasma telavancin concentration” value ([4]; Cohort 1 (12–17 years), N = 13–14, nominal time 2 h, mean ± SD) of the same compound?
The value was 37.4 ± 5.26.

What about the “Mean plasma telavancin concentration” value ([4]; Cohort 1 (12–17 years), N = 13–14, nominal time 6 h, mean ± SD) of the same compound?
The value was 19.8 ± 3.58.

And the “Mean plasma telavancin concentration” value ([4]; Cohort 1 (12–17 years), N = 13–14, nominal time 12 h, mean ± SD)?
The value was 8.84 ± 3.51.

What about the “Mean plasma telavancin concentration” value ([4]; Cohort 1 (12–17 years), N = 13–14, nominal time 24 h, mean ± SD) of the same compound?
The value was 2.14 ± 0.922.

What about the “CL (clearance)” value ([4]; Cohort 2 (6–11 years), N = 6, mean ± SD) of the same compound?
The value was 0.5 ± 0.135 mL/min/kg.

What about the “AUC0-inf” value [4, 5] of the same compound?
The value was 351 ± 79.7 µg·h/mL.

What about the “AUC0-last (area under the curve from time zero until the last PK sample)” value [4, 5] of the same compound?
The value was 333 ± 74.2 µg·h/mL.

What about the “Mean plasma telavancin concentration” value ([4]; Cohort 2 (6–11 years), N = 6–7, nominal time 1 h after start of infusion, mean ± SD) of the same compound?
The value was 60.1 ± 11.9.

And the “Mean plasma telavancin concentration” value ([4]; Cohort 2 (6–11 years), N = 6–7, nominal time 1.5 h, mean ± SD)?
The value was 48.4 ± 8.66.

And the “Mean plasma telavancin concentration” value ([4]; Cohort 2 (6–11 years), N = 6–7, nominal time 2 h, mean ± SD)?
Its value is 41.9 ± 7.65.

What about the “Mean plasma telavancin concentration” value ([4]; Cohort 2 (6–11 years), N = 6–7, nominal time 6 h, mean ± SD) of the same compound?
Its value is 20.7 ± 3.64.

What about the “Mean plasma telavancin concentration” value ([4]; Cohort 2 (6–11 years), N = 6–7, nominal time 12 h, mean ± SD) of the same compound?
The value was 9.20 ± 2.50.

And the “Mean plasma telavancin concentration” value ([4]; Cohort 2 (6–11 years), N = 6–7, nominal time 24 h, mean ± SD)?
The value was 2.08 ± 1.23.

And the “CL (clearance)” value ([4]; Cohort 3 (2–5 years), N = 1)?
Its value is 0.728 mL/min/kg.

What about the “T max (time at maximum concentration)” value ([4]; Cohort 3 (2–5 years), N = 1) of the same compound?
The value was 1.18 h.

And the “Mean plasma telavancin concentration” value ([4]; Cohort 3 (2–5 years), N = 1, nominal time 1 h after start of infusion)?
Its value is 53.1.

What about the “Mean plasma telavancin concentration” value ([4]; Cohort 3 (2–5 years), N = 1, nominal time 1.5 h) of the same compound?
The value was 45.0.

And the “Mean plasma telavancin concentration” value ([4]; Cohort 3 (2–5 years), N = 1, nominal time 2 h)?
The value was 37.3.

What about the “Mean plasma telavancin concentration” value ([4]; Cohort 3 (2–5 years), N = 1, nominal time 6 h) of the same compound?
The value was 18.0.

And the “Mean plasma telavancin concentration” value ([4]; Cohort 3 (2–5 years), N = 1, nominal time 12 h)?
The value was 2.67.

What about the “Mean plasma telavancin concentration” value ([4]; Cohort 3 (2–5 years), N = 1, nominal time 24 h) of the same compound?
The value was 0.146.

And the “C max (maximum plasma concentration)” value ([4]; Cohort 3 (2–5 years), N = 1, plasma)?
The value was 53.1 µg/mL.

What about the “T 1/2 (terminal elimination half-life)” value ([4]; Cohort 3 (2–5 years), N = 1, plasma, 10 mg/kg) of the same compound?
The value was 2.73 h.

And the “AUC0-inf” value [4, 6]?
Its value is 229 µg·h/mL.

What about the “AUC0-last (area under the curve from time zero until the last PK sample)” value [4, 6] of the same compound?
Its value is 228 µg·h/mL.

And the Tmax ([4]; human, in vivo, 10 mg/kg, Cohort 1 (12–17 years), N = 13)?
The Tmax was 1.02 h.

What about the Cmax [4, 7] of the same compound?
Its Cmax is 58.3 ± 8.4 µg/mL.

What about the half-life [4, 7] of the same compound?
Its half-life is 5.6 ± 1.01 h.

What about the Tmax ([4]; human, in vivo, 10 mg/kg, Cohort 2 (6–11 years), N = 6) of the same compound?
Its Tmax is 1.09 h.

And the Cmax [4, 8]?
The Cmax was 60.1 ± 11.9 µg/mL.

And the half-life [4, 8]?
The half-life was 5.19 ± 0.751 h.

What about the clearance ([4]; human, in vivo, Cohort 1 (12–17 years), N = 13, mean ± SD, read-out: CL (clearance) (converted)) of the same compound?
The clearance was 0.497 mL/min/kg.

What about the AUC(0-inf) ([4]; human, in vivo, Cohort 1 (12–17 years), N = 13, plasma, noncompartmental, mean ± SD, read-out: AUC0-inf (area under the curve extrapolated to infinity)) of the same compound?
Its AUC(0-inf) is 345 ± 58.5 µg·h/mL.

And the AUC(0-t) ([4]; human, in vivo, Cohort 1 (12–17 years), N = 13, plasma, noncompartmental, mean ± SD, read-out: AUC0-last (area under the curve from time zero until the last PK sample))?
Its AUC(0-t) is 326 ± 50 µg·h/mL.

— article PMC10649008 (Antimicrobial Agents and Chemotherapy, 2023)
